According to ChEMBL document CHEMBL1127438, “Substituted (S)-phenylpiperidines and rigid congeners as preferential dopamine autoreceptor antagonists: synthesis and structure-activity relationships” (J Med Chem, 1994):
Several values for one entry are separate records, joined by “and”; a condition that tells them apart may be missing. Equal values may be shown once.

Key:
D(2) dopamine receptor [1] = biological target: T1, D(2) dopamine receptor (Rattus norvegicus, UniProt P61169); assay: Tested for affinity against striatal dopamine autoreceptor (DA) D2 receptors using [3H]spiperone as radioligand in rats.
D(2) dopamine receptor [2] = biological target: T1, D(2) dopamine receptor; assay: Tested for affinity against cloned mammalian dopamine autoreceptor (DA) D2 receptors expressed in CHO-K1 cells using [3H]spiperone as radioligand; type: cell-based
Rattus norvegicus [3] = assay: Compound is evaluated for DOPA accumulation in nonpretreated habituated rats for subcuteneous dose of 100 micro mol/kg in rat striatum; type: functional
D(2) dopamine receptor [4] = biological target: T2, D(2) dopamine receptor (Homo sapiens, UniProt P14416); assay: biochemical
Description: Affinity against recombinant dopamine receptor (DA) D2 expressed in CHO-K1 cells, using [3H]-spiperone as radioligand

Dopamine receptor = assay: Tested for in vitro binding affinity against cloned mammalian dopamine autoreceptor (DA) receptors expressed in CHO-K1 cells using [3H]U-86170 as radioligand; type: cell-based
Rattus norvegicus [5] = assay: Compound is evaluated for DOPA accumulation in reserpine-pretreated habituated rats at 100 micro mol/kg of subcuteneous dose in rat striatum; type: functional
D(3) dopamine receptor [6] = biological target: T3, D(3) dopamine receptor (Homo sapiens, UniProt P35462); assay: Tested for in vitro binding affinity against cloned mammalian dopamine autoreceptor (DA) receptors expressed in CHO-K1 cells [3H]-spiperone as radioligand; type: cell-based
Rattus norvegicus [7] = assay: Evaluated for biochemical levels of DOPAC in nonpretreated habituated rats for subcuteneous dose of 100 micro mol/kg in rat striatum; type: functional
Rattus norvegicus [8] = assay: Evaluated for locomotor activity in nonpretreated habituated rats at 100 umol/kg of subcuteneous dose; type: functional; set-up: unit not given here
Rattus norvegicus [9] = assay: Effect (60 min after administration of 200 (micro mol/kg) subcuteneous dose on DA release in brain dialysis model of rat striatum; type: functional
Rattus norvegicus [10] = assay: Compound is evaluated for locomotor activity in reserpine-pretreated habituated rats at 100 umol/kg of subcuteneous dose; type: functional
Rattus norvegicus [11] = organism: Rattus norvegicus; assay: Compound is tested for concomitant ability to antagonize the locomotor activity induced by Di-Pr-5,6-ADTN; type: functional
Rattus norvegicus [12] = assay: Compound is evaluated for biochemical accumulation of DOPAC in nonpretreated habituated rats for subcuteneous dose of 100 micro mol/kg in rat striatum; type: functional
Rattus norvegicus [13] = assay: Compound is evaluated for DOPA accumulation in reserpine-pretreated habituated rats at 100 umol/kg of subcuteneous dose in rat striatum; type: functional
Rattus norvegicus [14] = assay: Compound is evaluated for locomotor activity in reserpine-pretreated habituated rats for (100 umol/kg) subcuteneous dose; type: functional
Rattus norvegicus [15] = assay: Compound is evaluated for biochemical levels of DOPAC in nonpretreated habituated rats for subcuteneous dose of 100 umol/kg in rat striatum; type: functional
Rattus norvegicus [16] = assay: Compound is evaluated for locomotor activity in reserpine-pretreated habituated rats at 100 micro mol/kg of subcuteneous dose; type: functional
Rattus norvegicus [17] = assay: Compound is evaluated biochemically in reserpine-pretreated habituated rats for (50 micro mol/kg) subcuteneous dose in 5-HTP; type: functional
Rattus norvegicus [18] = assay: Evaluated for locomotor activity in nonpretreated habituated rats in 100 umol/kg of subcuteneous dose; type: functional; set-up: unit not given here
D(3) dopamine receptor [19] = biological target: D(3) dopamine receptor (Rattus norvegicus, UniProt P19020); assay: Tested for in vitro binding affinity against cloned mammalian dopamine autoreceptor, expressed in CHO-K1 cells, using [3H]spiperone as radioligand; type: cell-based
Rattus norvegicus [20] = assay: Evaluated biochemically in nonpretreated habituated rats for (100 uM/kg) subcuteneous dose, Value expressed as locomotor activity (LMA); type: functional
Rattus norvegicus [21] = assay: Compound is evaluated biochemically in nonhabituated rats for (100 umol/kg) subcuteneous dose, Value expressed as locomotor activity (LMA); type: functional
Rattus norvegicus [22] = assay: Evaluated biochemically in reserpine-pretreated habituated rats for (100 umol/kg) subcuteneous dose in rat striatum (DOPAacc), Value expressed as counts/30 min; type: functional
D(2) dopamine receptor [23] = biological target: T1, D(2) dopamine receptor
Description: Affinity against striatal dopamine D2 receptors using [3H]spiperone as radioligand in rats.

Rattus norvegicus [24] = assay: Evaluated for DOPA accumulation (DOPAacc) level in nonhabituated rats after subcuteneous dose (100 uM/kg) in rat striatum; type: functional
Rattus norvegicus [25] = assay: Evaluated biochemically in reserpine-pretreated habituated rats for (100 umol/kg) subcuteneous dose, Value expressed as locomotor activity (LMA); type: functional
D(2) dopamine receptor [26] = biological target: T2, D(2) dopamine receptor; assay: biochemical; remark: listed apart in the source
Description: In vitro binding affinity against cloned mammalian dopamine D2 autoreceptor, expressed in CHO-K1 cells, using [3H]U-86170 as radioligand

Rattus norvegicus [27] = assay: Evaluated for DOPAC level in nonpretreated habituated rats after subcuteneous dose of 100 micro mol/kg in rat striatum; type: functional
Rattus norvegicus [28] = assay: Compound is evaluated for DOPAC accumulation in nonpretreated habituated rats after subcuteneous dose of 100 micro mol/kg in rat striatum; type: functional
Rattus norvegicus [29] = assay: Compound is evaluated for DOPA accumulation (DOPAacc) level in nonhabituated rats after subcuteneous dose (100 uM/kg) in rat striatum; type: functional
D(3) dopamine receptor [30] = biological target: T3, D(3) dopamine receptor; assay: Tested for in vitro binding affinity against cloned mammalian dopamine D3 receptor, expressed in CHO-K1 cells, using [3H]spiperone as radioligand; type: cell-based
Rattus norvegicus [31] = organism: Rattus norvegicus; assay: Compound was tested in vio for concomitant ability to antagonize the locomotor activity of rat induced by Di-Pr-5,6-ADTN; type: functional
Rattus norvegicus [32] = assay: Evaluated biochemically in nonhabituated rats for (100 umol/kg) subcuteneous dose, Value expressed as locomotor activity (LMA); type: functional
Rattus norvegicus [33] = assay: Compound was tested in vivo for its ability to displace DA receptor agonist (Di-Pr-5,6-ADTN) from rat striatal binding sites at 0.25 uM/Kg sc. dose; type: functional
Rattus norvegicus [34] = assay: Compound is evaluated for locomotor activity in nonpretreated habituated rats in 50 umol/kg of subcuteneous dose; type: functional
Rattus norvegicus [35] = assay: Compound is evaluated for DOPA accumulation in reserpine-pretreated habituated rats at 50 umol/kg of subcuteneous dose in rat striatum; type: functional
Rattus norvegicus [36] = assay: Compound is evaluated for locomotor activity in nonhabituated rats at 3.2 umol/kg of subcuteneous dose; type: functional
Rattus norvegicus [37] = assay: Effect (60 min after administration of 200 (1.6 micro mol/kg) subcuteneous dose on DA release in brain dialysis model of rat; type: functional
Rattus norvegicus [38] = assay: Compound is evaluated for locomotor activity in nonpretreated habituated rats in 25 umol/kg of subcuteneous dose; type: functional
Rattus norvegicus [39] = assay: Compound is evaluated biochemically in nonhabituated rats for (0.64 micro mol/kg) subcuteneous dose in rat striatum (DOPAacc); type: functional
Rattus norvegicus [40] = assay: Compound is evaluated for locomotor activity in reserpine-pretreated habituated rats at 3.2 umol/kg) of subcuteneous dose; type: functional
Rattus norvegicus [41] = assay: Compound is evaluated for DOPA accumulation in reserpine-pretreated habituated rats fat 3.2 micro mol/kg of subcuteneous dose in rat striatum; type: functional
Rattus norvegicus [42] = assay: Compound is evaluated DOPA accumulation in nonhabituated rats for (1.3 micro mol/kg) subcuteneous dose in rat striatum; type: functional
Rattus norvegicus [43] = assay: Effect (60 min after administration of 200 (5.3 umol/kg) subcuteneous dose on DA release in brain dialysis model of rat; type: functional
Rattus norvegicus [44] = assay: Compound is evaluated for locomotor activity in nonhabituated rats at 1.3 micro mol/kg of subcuteneous dose; type: functional
Rattus norvegicus [45] = assay: Compound is evaluated for locomotor activity in nonpretreated habituated rats at 1.6 micro mol/kg of subcuteneous dose; type: functional
Rattus norvegicus [46] = assay: Compound is tested for its ability to displace Di-Pr-5,6-ADTN at […] subcutaneous dose from rat striatal binding sites in vivo; type: functional

T3 sequence (P35462 whole entry): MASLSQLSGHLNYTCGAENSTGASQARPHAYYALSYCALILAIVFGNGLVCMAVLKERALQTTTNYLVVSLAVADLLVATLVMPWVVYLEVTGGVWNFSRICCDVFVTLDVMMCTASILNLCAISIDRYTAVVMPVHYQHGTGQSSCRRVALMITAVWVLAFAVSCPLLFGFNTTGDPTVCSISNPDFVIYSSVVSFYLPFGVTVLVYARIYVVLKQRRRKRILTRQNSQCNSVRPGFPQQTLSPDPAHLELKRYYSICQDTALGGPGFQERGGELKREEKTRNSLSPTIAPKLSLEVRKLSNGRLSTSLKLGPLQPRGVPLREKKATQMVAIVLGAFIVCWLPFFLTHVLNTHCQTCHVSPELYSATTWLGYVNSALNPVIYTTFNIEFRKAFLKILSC
T2 sequence (P14416 whole entry): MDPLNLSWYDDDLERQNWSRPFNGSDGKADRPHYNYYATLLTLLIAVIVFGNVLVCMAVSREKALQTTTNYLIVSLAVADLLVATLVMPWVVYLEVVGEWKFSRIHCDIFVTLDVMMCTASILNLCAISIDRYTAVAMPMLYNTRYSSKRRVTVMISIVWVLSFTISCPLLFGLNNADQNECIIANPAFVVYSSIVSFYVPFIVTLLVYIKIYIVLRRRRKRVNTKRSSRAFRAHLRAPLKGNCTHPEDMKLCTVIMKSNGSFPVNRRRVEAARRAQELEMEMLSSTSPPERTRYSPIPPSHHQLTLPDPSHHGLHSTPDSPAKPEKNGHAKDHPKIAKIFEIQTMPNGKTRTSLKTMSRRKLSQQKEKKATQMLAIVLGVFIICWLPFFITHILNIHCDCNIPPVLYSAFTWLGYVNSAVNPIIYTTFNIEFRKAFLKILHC
T1 sequence (P61169 whole entry): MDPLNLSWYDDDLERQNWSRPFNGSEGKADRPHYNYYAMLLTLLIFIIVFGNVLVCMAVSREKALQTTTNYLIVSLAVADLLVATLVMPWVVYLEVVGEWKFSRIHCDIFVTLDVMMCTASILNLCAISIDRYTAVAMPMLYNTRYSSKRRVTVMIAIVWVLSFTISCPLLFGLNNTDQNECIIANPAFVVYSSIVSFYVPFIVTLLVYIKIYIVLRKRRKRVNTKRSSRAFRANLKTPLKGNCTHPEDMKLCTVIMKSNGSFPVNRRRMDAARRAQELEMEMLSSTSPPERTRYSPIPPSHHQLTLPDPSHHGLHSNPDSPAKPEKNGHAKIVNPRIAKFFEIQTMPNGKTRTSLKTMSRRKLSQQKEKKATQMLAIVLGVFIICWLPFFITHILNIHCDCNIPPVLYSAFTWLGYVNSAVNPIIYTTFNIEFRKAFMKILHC
Chain of D(3) dopamine receptor (Rattus norvegicus, UniProt P19020) (P19020 whole entry): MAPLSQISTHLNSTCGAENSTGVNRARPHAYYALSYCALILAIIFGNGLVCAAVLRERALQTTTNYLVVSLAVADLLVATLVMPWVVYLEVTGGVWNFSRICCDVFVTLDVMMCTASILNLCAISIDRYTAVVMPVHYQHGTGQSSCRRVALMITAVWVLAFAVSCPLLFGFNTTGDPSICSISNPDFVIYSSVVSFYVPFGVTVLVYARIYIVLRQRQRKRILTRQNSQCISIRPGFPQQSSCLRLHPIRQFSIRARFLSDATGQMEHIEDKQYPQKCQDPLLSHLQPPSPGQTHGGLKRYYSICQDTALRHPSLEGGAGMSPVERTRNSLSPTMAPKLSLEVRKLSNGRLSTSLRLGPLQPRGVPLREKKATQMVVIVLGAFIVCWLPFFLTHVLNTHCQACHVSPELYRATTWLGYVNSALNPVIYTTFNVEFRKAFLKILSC

## CN(C)CCCN1CCC[C@@H](c2cccc(C#N)c2)C1
D(2) dopamine receptor [1]
  Ki: 2330 nM
D(2) dopamine receptor [2]
  Ki: > 217 nM

## CCCc1cccc([C@@H]2CCCN(CCC)C2)c1
Rattus norvegicus [3]
  Activity: 190%
D(2) dopamine receptor [1]
  Ki: 392 nM
D(2) dopamine receptor [4]
  Ki: > 217 nM
Dopamine receptor
  Ki: 57 nM
Rattus norvegicus [5]
  Activity: 62%
  LMA: 734
D(3) dopamine receptor [6]
  Ki: 86 nM
Rattus norvegicus [7]
  Activity: 181%

## CCCN1CCC[C@@H](c2cccc(OS(=O)(=O)C(F)(F)F)c2)C1
Dopamine receptor
  Ki: 40 nM
Rattus norvegicus [8]
  LMA: 290
Rattus norvegicus [9]
  Activity: 223%
Rattus norvegicus [10]
  LMA: 26
Rattus norvegicus [11]
  LMA: 78%
Rattus norvegicus [12]
  Activity: 264% and 89%

## CCCN1CCC[C@@H](c2cccc(C=O)c2)C1
D(2) dopamine receptor [1]
  Ki: 1120 nM
D(2) dopamine receptor [4]
  Ki: 145 nM
Dopamine receptor
  Ki: 20 nM
Rattus norvegicus [8]
  LMA: 208
Rattus norvegicus [13]
  Activity: 92%
D(3) dopamine receptor [6]
  Ki: 83 nM
Rattus norvegicus [14]
  LMA: 5
Rattus norvegicus [7]
  Activity: 127%

## CCCN1CCC[C@@H](c2cccc(OS(=O)(=O)c3ccc(C)cc3)c2)C1
D(2) dopamine receptor [1]
  Ki: 1320 nM
D(2) dopamine receptor [4]
  Ki: > 217 nM
Dopamine receptor
  Ki: 162 nM
Rattus norvegicus [8]
  LMA: 152
Rattus norvegicus [15]
  Activity: 89%
D(3) dopamine receptor [6]
  Ki: 92 nM

## CCCN1CCC[C@@H](c2cccc(SC)c2)C1
D(2) dopamine receptor [1]
  Ki: 849 nM
D(2) dopamine receptor [4]
  Ki: > 217 nM
Dopamine receptor
  Ki: 49 nM
Rattus norvegicus [8]
  LMA: 313
Rattus norvegicus [16]
  LMA: 5
Rattus norvegicus [13]
  Activity: 92%
D(3) dopamine receptor [6]
  Ki: 139 nM
Rattus norvegicus [7]
  Activity: 118%

## C=CCN1CCC2c3cccc(OS(=O)(=O)C(F)(F)F)c3CCC21 (stereo not drawn)
Rattus norvegicus [17]
  Activity: 52%
D(2) dopamine receptor [1]
  Ki: > 172 nM
D(2) dopamine receptor [4]
  Ki: > 217 nM
Dopamine receptor
  Ki: 125 nM
Rattus norvegicus [5]
  Activity: 92%
Rattus norvegicus [18]
  LMA: 443 and 635
D(3) dopamine receptor [6]
  Ki: 67 nM
Rattus norvegicus [7]
  Activity: 175%

## CCCN1CCC[C@@H](c2cccc(OC)c2)C1
D(3) dopamine receptor [19]
  Ki: 1330 nM
Rattus norvegicus [20]
  Control: 463%
Rattus norvegicus [21]
  Control: 160%
D(2) dopamine receptor [4]
  Ki: > 217 nM
Rattus norvegicus [22]
  Activity: 66%
D(2) dopamine receptor [23]
  Ki: 3440 nM
Rattus norvegicus [24]
  Activity: 131%
Rattus norvegicus [25]
  Control: 23%
D(2) dopamine receptor [26]
  Ki: 602 nM
Rattus norvegicus [27]
  Activity: 149%

## CCCN1CCC[C@@H](c2cccc(N)c2)C1
Rattus norvegicus [20]
  Control: 113%
D(2) dopamine receptor [4]
  Ki: > 217 nM
Rattus norvegicus [22]
  Activity: 91%
D(2) dopamine receptor [23]
  Ki: 2000 nM
Rattus norvegicus [28]
  Activity: 128%
Rattus norvegicus [25]
  Control: 72%

## CCCN1CCC[C@@H](c2cccc(OCC(F)(F)F)c2)C1
Rattus norvegicus [21]
  Control: 90%
D(2) dopamine receptor [4]
  Ki: > 217 nM
Rattus norvegicus [29]
  Control: 96%
D(2) dopamine receptor [23]
  Ki: 1670 nM
D(3) dopamine receptor [30]
  Ki: 1410 nM
D(2) dopamine receptor [26]
  Ki: 820 nM

## CCN1CCCC1CNC(=O)c1c(OC)ccc(Br)c1OC (single isomer, unassigned) [REMOXIPRIDE]
Rattus norvegicus [22]
  Activity: 104%
Rattus norvegicus [31]
  LMA: 91%
Rattus norvegicus [24]
  Activity: 411%
Rattus norvegicus [32]
  Locomotor activity (% of control): 60%
Rattus norvegicus [25]
  Control: 5%
Rattus norvegicus [27]
  Activity: 313%
Rattus norvegicus [33]
  Control: 48%

## CCCN1CCCC2c3cccc(OS(=O)(=O)C(F)(F)F)c3CCC21 (stereo in doubt; 46)
D(2) dopamine receptor [1]
  Ki: 64 nM
D(2) dopamine receptor [4]
  Ki: > 217 nM
Dopamine receptor
  Ki: 21 nM
Rattus norvegicus [34]
  LMA: 211
Rattus norvegicus [5]
  Activity: 62%
Rattus norvegicus [18]
  LMA: 200
Rattus norvegicus [35]
  Activity: 85%
D(3) dopamine receptor [6]
  Ki: 22 nM
Rattus norvegicus [7]
  Activity: 263%

## CN1CCc2cccc3c2[C@H]1Cc1ccc(O)c(O)c1-3 [APOMORPHINE]
Rattus norvegicus [36]
  LMA: 277
Rattus norvegicus [37]
  Activity: 37%
Rattus norvegicus [38]
  LMA: 491
Rattus norvegicus [39]
  Activity: 53%
Rattus norvegicus [40]
  LMA: 366
Rattus norvegicus [41]
  Activity: 20%
Rattus norvegicus [7]
  Activity: 65%

## O=C(CCCN1CCC(O)(c2ccc(Cl)cc2)CC1)c1ccc(F)cc1 [HALOPERIDOL]
Rattus norvegicus [42]
  Activity: 356%
Rattus norvegicus [43]
  Activity: 211%
Rattus norvegicus [44]
  LMA: 2
Rattus norvegicus [45]
  LMA: 61
Rattus norvegicus [11]
  LMA: 7%
Rattus norvegicus [46]
  Activity: 82%
Rattus norvegicus [7]
  Activity: 404%
